# Key:
# Test in all cases: Agar dilution MIC in DST agar (Ericsson and Sherris)
# Format in all cases: cell-based
# [1] = test system: Proteus morganii 2359; settings: for MIC Prot. 2359: in vitro; for MIC: Morganella morganii, 2359, in vitro, read-out: MIC Prot. 2359
# Text: (§1) Die antibiotische Aktivität der Testverbindungen in vitro wurde durch die Agarverdünnungsmethode nach Ericsson, H.M., und Sherris, S.C., 1971, Acta Path. Microb. Scand. Section B, Suppl. No. 217, Bd. 1-90, in DST Agara ermittelt. Die gefundenen, das Wachstum der Testorganismen noch hemmenden Minimalkonzentrationen (MIC = minimum inhibiting concentrations) werden in Mikrogramm pro Milliliter (µg/ml) für die geprüften Verbindungen in der Tabelle 1 angegeben.
# [2] = test system: Staphylococcus aureus 2999; settings: for MIC Staph. 2999: in vitro; for MIC: Staphylococcus aureus, 2999, in vitro, read-out: MIC Staph. 2999
# Text: as §1
# [3] = test system: Salmonella Typhimurium 277; settings: in vitro; for MIC: Salmonella enterica, TYPHIMURIUM, read-out: MIC Salm. 277
# Text: as §1
# [4] = test system: Staphylococcus aureus 10B; settings: in vitro; for MIC: Staphylococcus aureus, 10B, read-out: MIC Staph. 10B
# Text: as §1
# [5] = test system: Proteus morganii 1518; settings: for MIC Prot. 1518: in vitro; for MIC: Morganella morganii, 1518, in vitro, read-out: MIC Prot. 1518
# Text: as §1
# [6] = test system: Pseudomonas aeruginosa K 799/61; settings: for MIC Pseu. 799: in vitro, agar dilution, DST agar; for MIC: Pseudomonas aeruginosa, K799/61, read-out: MIC Pseu. 799
# Text: as §1
# [7] = test system: Escherichia coli 2018; settings: for MIC Esch. 2018: in vitro; for MIC: Escherichia coli, 2018, in vitro, read-out: MIC Esch. 2018
# Text: as §1
# [8] = test system: Escherichia coli 205; settings: for MIC Esch. 205: in vitro; for MIC: Escherichia coli, 205, in vitro, read-out: MIC Esch. 205
# Text: as §1
Compound,MIC Prot. 2359 [1] [µg/mL],MIC Staph. 2999 [2] [µg/mL],MIC Salm. 277 [3] [µg/mL],MIC Staph. 10B [4] [µg/mL],MIC Prot. 1518 [5] [µg/mL],MIC Pseu. 799 [6] [µg/mL],MIC Esch. 2018 [7] [µg/mL],MIC Esch. 205 [8] [µg/mL],MIC [1] [µg/mL],MIC [2] [µg/mL],MIC [3] [µg/mL],MIC [4] [µg/mL],MIC [5] [µg/mL],MIC [6] [µg/mL],MIC [7] [µg/mL],MIC [8] [µg/mL]
"4-[4-(2-Ethoxyethyl)-piperazinyl]-imidazolo[4,5-c] rifamycin SV [Verbindung 64]",16,0.005,64,0.01,16,16,16,16,–,–,–,–,–,–,–,–
"COC(CN(C)c1nc2c([nH]1)c1c(O)c3c(O)c(C)c4c(c32)C(=O)[C@@](C)(O/C=C/[C@H](OC)[C@@H](C)[C@@H](OC(C)=O)[C@H](C)[C@H](O)[C@H](C)[C@@H](O)[C@@H](C)/C=C/C=C(/C)C(=O)N1)O4)OC [Verbindung 15, 4-[N-(2,2-Dimethoxyethyl)-N-methylamino]-imidazolo[4,5-c]-rifamycin SV]",–,–,–,–,–,–,–,–,4,0.005,32,0.005,8,16,8,8
"4-(4-Isobutyrylpiperazinyl)-imidazolo[4,5-c]rifamycin SV [Verbindung 70]",32,0.02,128,0.02,32,128,32,32,–,–,–,–,–,–,–,–
"4-[4-(2-Methoxyethyl)-piperazinyl]-imidazolo[4,5-c]rifamycin SV [Verbindung 63]",8,0.01,32,0.01,8,32,8,16,–,–,–,–,–,–,–,–
"4-(4-Morpholinocarbonylmethylpiperazinyl)-imidazolo-[4,5-c]rifamycin SV [Verbindung 73]",32,0.05,128,0.05,32,128,128,128,–,–,–,–,–,–,–,–
"4-[4-(2,2-Dimethoxyethyl)-piperazinyl]-imidazolo- [4,5-c]rifamycin SV [Verbindung 65]",32,0.01,128,0.05,32,32,32,32,–,–,–,–,–,–,–,–
"CO[C@H]1/C=C/O[C@@]2(C)Oc3c(C)c(O)c4c(O)c(c5nc(N6CCN(c7cccc(C(F)(F)F)c7)CC6)[nH]c5c4c3C2=O)NC(=O)/C(C)=C\C=C\[C@H](C)[C@H](O)[C@@H](C)[C@@H](O)[C@@H](C)[C@H](OC(C)=O)[C@@H]1C [Verbindung 53, 4-[4-(3-Trifluormethylphenyl)-piperazinyl]-imidazolo-[4,5-c]rifamycin SV]",–,–,–,–,–,–,–,–,8,0.01,32,0.01,2,32,8,8
"4-[4-(l,3-Dimethylpropyl)-piperazinyl]-imidazolo[4,5-c]-rifamycin SV [Verbindung 43]",8,0.005,32,0.01,8,16,4,8,–,–,–,–,–,–,–,–
"4-[4-(2-Dimethylaminoethyl)-piperazinyl-imidazolo[4,5-cl- rifamycin SV [Verbindung 69]",32,0.05,128,0.05,32,128,32,32,–,–,–,–,–,–,–,–
"CC=C(CC)CN1CCN(c2nc3c([nH]2)c2c(O)c4c(O)c(C)c5c(c43)C(=O)[C@@](C)(O/C=C/[C@H](OC)[C@@H](C)[C@@H](OC(C)=O)[C@H](C)[C@H](O)[C@H](C)[C@@H](O)[C@@H](C)/C=C/C=C(/C)C(=O)N2)O5)CC1 [Verbindung 47, 4-[4-(2-Ethyl-2-butenyl)-piperazinyl]-imidazolo[4,5-c]-rifamycin SV]",–,–,–,–,–,–,–,–,4,0.005,16,0.005,4,32,4,8
"CO[C@H]1/C=C/O[C@@]2(C)Oc3c(C)c(O)c4c(O)c(c5[nH]c(N6CCN(CCC(C)C)CC6)nc5c4c3C2=O)NC(=O)/C(C)=C\C=C\[C@H](C)[C@H](O)[C@@H](C)[C@@H](O)[C@@H](C)[C@H](OC(C)=O)[C@@H]1C [Verbindung 40, 4-[4-(3-Methylbutyl)piperazinyl]-imidazolo[4,5-c]rifamycin SV]",–,–,–,–,–,–,–,–,8,0.005,32,0.005,8,16,8,8
"4-(4-Ethoxycarbonylpiperazinyl)-imidazolo[4,5-c]rifamycin SV [Verbindung 67]",16,0.005,64,0.005,16,32,16,16,–,–,–,–,–,–,–,–
"COCCN(CCOC)c1nc2c([nH]1)c1c(O)c3c(O)c(C)c4c(c32)C(=O)[C@@](C)(O/C=C/[C@H](OC)[C@@H](C)[C@@H](OC(C)=O)[C@H](C)[C@H](O)[C@H](C)[C@@H](O)[C@@H](C)/C=C/C=C(/C)C(=O)N1)O4 [Verbindung 16, 4-[N-Di-(2-methoxyethyl)-amino]-imidazolo[4,5-c]rifamycin SV]",–,–,–,–,–,–,–,–,4,0.01,32,0.01,2,8,8,8
"4-(4-Isopropylcarbamoylmethylpiperazinyl)-imidazolo-[4,5-c]rifamycin SV [Verbindung 72]",32,0.05,128,0.05,32,64,32,32,–,–,–,–,–,–,–,–
"4-[4-(1-Methyl-2-dimethylaminoethyl)-piperazinyl]-imidazolo[4,5-c]rifamycin SV [Verbindung 74]",32,0.5,128,0.5,32,128,32,128,–,–,–,–,–,–,–,–
"4-(4-Propyliperazinyl)-imidazolo[4,5-c]rifamycin SV [Verbindung 32]",8,0.001,32,0.001,8,8,8,8,–,–,–,–,–,–,–,–

# — patent publication EP0049683A2, “Imidazo-rifamycines, process for their preparation, pharmaceutical preparations containing them and their use” (CIBA-GEIGY AG, priority 1980, dated 1982)
